From the supplement of paper PMC10307832 come the findings set out here.

Common to all, as to test: relative viability (nuclei count vs DMSO), 5 days (fraction); higher = more cells survive
Compound in one assay: CC1=CC(=C(N1C2=CC=C(C=C2)Cl)C)C(=O)CN3CCCCC3 [IU1-47]
Summed up:
(§1)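 A plate was accepted only when its control CV was below 25% and the cells had doubled at least once. Viability is defined from nuclear counts as treated wells divided by vehicle wells, with the median taken across plates. That median covers lung cancer cell lines grown in 1536-well plates, dosed by pinning at five √10-spaced library-drug concentrations, and counted in MetaXpress from 4× Hoechst images after 5 days.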

Compound in the next assay: Cc1nc(C(=O)NCC(=O)O)c(O)c2ccc(Oc3ccccc3)cc12 [FG-4592]
A digest of the protocol:
as §1

Compound in the assay “IU1-47 + Tozasertib”: CC1=CC(=C(N1C2=CC=C(C=C2)Cl)C)C(=O)CN3CCCCC3 [IU1-47] + Cc1cc(Nc2cc(N3CCN(C)CC3)nc(Sc3ccc(NC(=O)C4CC4)cc3)n2)n[nH]1 [Tozasertib] (partner 0.1 µM)
Summed up:
(§2)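 Lung cancer cell lines, seeded in 1536-well plates, were treated the following day by pin tool with a single drug or with five library-drug doses (not always all listed) in √10 steps on top of a fixed anchor-drug dose. Cells were fixed and nuclei stained in one step after 5 days, and nuclei were counted. Relative viability is the nuclei count for treated wells divided by that for vehicle wells, reported as medians of duplicate plates.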

Compound in the assay “IU1-47 + Palbociclib”: CC1=CC(=C(N1C2=CC=C(C=C2)Cl)C)C(=O)CN3CCCCC3 [IU1-47] + CC(=O)c1c(C)c2cnc(Nc3ccc(N4CCNCC4)cn3)nc2n(C2CCCC2)c1=O [Palbociclib] (partner 0.5 µM)
A digest of the protocol: as §2

As for UMC-11, the relative viability came to 1.01 with IU1-47 (0.08 µM); 0.961 with IU1-47 (0.253 µM); 1.01 with IU1-47 (0.8 µM); 0.991 in the assay with IU1-47 (2.53 µM); 0.922 with IU1-47 (8 µM); 0.952 in the assay with FG-4592 (0.08 µM). Also, the relative viability with FG-4592 (0.253 µM) was 0.928; with FG-4592 (0.8 µM), 0.806; in the assay with FG-4592 (2.53 µM), 1.07; with FG-4592 (8 µM), 0.804; in the assay with IU1-47 + Tozasertib (first compound 0.08 µM), 0.215; with IU1-47 + Tozasertib (first compound 0.253 µM) it was 0.209. Also, the relative viability in the assay with IU1-47 + Tozasertib (first compound 0.8 µM) worked out at 0.201; with IU1-47 + Tozasertib (first compound 2.53 µM), 0.218; with IU1-47 + Tozasertib (first compound 8 µM), 0.214; with IU1-47 + Palbociclib (first compound 0.08 µM), 0.353; with IU1-47 + Palbociclib (first compound 0.253 µM) it was 0.339; in the assay with IU1-47 + Palbociclib (first compound 0.8 µM), 0.333. In addition, the relative viability turned out to be 0.322 with IU1-47 + Palbociclib (first compound 2.53 µM) and 0.351 with IU1-47 + Palbociclib (first compound 8 µM).
